Peptide text beside a SMILES is read from it. * marks the point of attachment. Cbz = O=C(OCc1ccccc1)*
Assays:
progerin mRNA = test: qRT-PCR of progerin transcripts in HGPS fibroblasts; format: cell-based, human; conditions: 10 μM MG132, time dependent, relative to DMSO
Protocol: (§1) Total RNA was isolated using the RNeasy plus extraction kit (Qiagen, Valencia, Calif.). 1 μg of RNA was reverse transcribed using the High Capacity cDNA Reverse Transcription Kit (Applied Biosystems). Real time PCR amplification was carried out with the TaqMan® Gene Expression Master Mix (Applied Biosystems) on a LightCycler 480 (Roche, Germany) using pre-designed primers for GAPDH (Hs00266705_g1), Progerin (F: […] (SEQ ID NO:3) R: […] (SEQ ID NO:4) and probe: […] (SEQ ID NO:5)), Lamin A (F: […] (SEQ ID NO:6) R: […] (SEQ ID NO:7) and probe: […] (SEQ ID NO:8)) and lamin C (F: […] (SEQ ID NO:9) R: […] (SEQ ID NO:10) and probe: […] (SEQ ID NO:11)) (Applied Biosystems) using the program: UNG incubation at 50° C. for 2 minutes, initial denaturation at 95° C. for 10 minutes, 40 cycles of amplification: denaturation at 95° C. for 15 seconds and annealing at 60° C. for 1 minute. All PCR reactions were performed in triplicate. Threshold cycle (Ct) values were used to calculate relative mRNA expression by the 2-ΔΔ^T relative quantification method with normalization to GAPDH expression.

lamin A mRNA = test: qRT-PCR of lamin A transcripts in HGPS cells; format: cell-based, human; conditions: 10 μM MG132 time-course
Protocol: as §1

progerin = test: Intramuscular MG132 in Lmna G609G/G609G mice, progerin in gastrocnemius muscle; format: in vivo, mouse
Protocol: (§2) (A) Lamin A, progerin, lamin C and SRSF-1 specific bands, corresponding to DMSO-treated left muscle (−) and 1 μg/Kg MG132-treated right muscle (+), were quantified by ImageJ software and their expression levels were normalized to GAPDH values.
(§3) Knock-in mouse model (Lmna^G609G/G609G) carrying the c.1827C>T (p.Gly609Gly) mutation in the endogenous Lmna gene, corresponding to the human HGPS mutation c.1824C>T (p.Gly609Gly) have been described previously (31). MG132 (1 or 10 μg/Kg body weight) was injected under isoflurane anesthesia into the right gastrocnemius muscle of […] homozygous knock-in mice (Lmna^G609G/G609G) 3 times per week for 2 weeks. Contralateral muscle served as control (DMSO). MG132 was dissolved in dimethyl sulfoxide (DMSO) and then diluted in 100 μl sterile phosphate-buffered saline (PBS) for intramuscular injection. […] Animal experiments have been carried out in compliance with the European guidelines for the care and use of laboratory animals (EU directive 2010/63/EU) and in accordance with the recommendations provided by the guide for the care and use of the laboratory animals of the French national Institute for Health and Medical Research (INSERM) and the ethical committee of Aix-Marseille University.

lamin A = test: Intramuscular MG132 in Lmna G609G/G609G mice, lamin A in gastrocnemius muscle; format: in vivo, mouse
Protocol: as §2, §3

[1] = tested on: wild-type first instar larvae; test: Toxicity of MG132 fed to Drosophila larvae; format: in vivo; conditions: 600 μM MG132 (in 0.2% DMSO) in the fly medium, 25° C.
Protocol: (A) The toxicity of MG132 fed to larvae was determined by transferring 80 wild-type first instar larvae into vials containing 5 ml of instant Drosophila medium reconstituted either with increasing concentrations of drug in DMSO, or DMSO alone.
Drug supplemented food was prepared as follows. Instant Drosophila medium (Carolina Biological Supply Company) was reconstituted in each vial with a solution of 1% yeast in water, supplemented with either increasing concentrations of drug solubilized in DMSO (dimethyl sulfoxide), or DMSO alone. MG132 was purchased from Santa Cruz Biotechnology (SC-201270). Each vial contained 5 ml or 2.5 ml of reconstituted medium, to raise larvae or adults, respectively. Individuals were fed with the drug from larval stages. 70 to 80 first instar larvae were transferred per vial and developed in the same vial up to adulthood; adults were transferred in a new vial with the same concentration of drug. To determine drug toxicity, 80 first instar larvae were transferred into vials containing drug- or DMSO alone-supplemented medium. Individuals reaching adulthood were scored. Abnormal wing posture was quantified by collecting adult males at birth, pooling five males per vial and scoring abnormal wing position each day by direct observation of the flies through the vials, without anesthesia.

[2] = tested on: Act88F-PABPN1-17ala-expressing flies; test: Wing posture defects in Drosophila OPMD model; format: in vivo; conditions: oral in food, from larval stages, Day 3 to Day 11 of adulthood, vs DMSO alone
Protocol: Drug supplemented food was prepared as follows. Instant Drosophila medium (Carolina Biological Supply Company) was reconstituted in each vial with a solution of 1% yeast in water, supplemented with either increasing concentrations of drug solubilized in DMSO (dimethyl sulfoxide), or DMSO alone. MG132 was purchased from Santa Cruz Biotechnology (SC-201270). Each vial contained 5 ml or 2.5 ml of reconstituted medium, to raise larvae or adults, respectively. Individuals were fed with the drug from larval stages. 70 to 80 first instar larvae were transferred per vial and developed in the same vial up to adulthood; adults were transferred in a new vial with the same concentration of drug. […] Abnormal wing posture was quantified by collecting adult males at birth, pooling five males per vial and scoring abnormal wing position each day by direct observation of the flies through the vials, without anesthesia.
The inventors used the Drosophila model in which PABPN1-17ala is expressed constitutively in adult indirect flight muscles from the Act88F-PABPN1-17ala transgene (90), to assay the effect of MG132 in vivo. […] Wing posture defects were recorded from Day 3 to Day 11 of adulthood. The effect of MG132 was quantified by recording the number of Act88F-PABPN1-17ala-expressing flies with abnormal wing posture.

[3] = 10 μg/kg body weight intramuscular

In the case of `CC(C)C[C@@H](C=O)NC(=O)[C@H](CC(C)C)NC(=O)[C@H](CC(C)C)NC(=O)OCc1ccccc1` [MG132, Z-Leu-Leu-Leu-al] (Cbz-Leu-Leu-Leu-aldehyde), the “progerin mRNA expression” value (progerin mRNA) is reported as “almost extinguished progerin mRNA expression”, the “lamin A transcript levels” value (lamin A mRNA) is reported as “significant decrease of lamin A transcripts” and the “progerin level in treated muscle” value (progerin; 1 μg/Kg intramuscular, 3 times per week for 2 weeks, vs contralateral muscle) is reported as “significant decrease of progerin level”. The “progerin level in treated muscle” value (progerin; [3]) was “significant decrease of progerin levels”, the “lamin A level in treated muscle” value (lamin A; 1 μg/Kg intramuscular, change not significant) was “small increase in lamin A” and the “lamin A level in treated muscle” value (lamin A; [3]) was “remain constant or increase slightly”. The “viability (flies reaching adulthood)” value [1] was “not detrimental for viability” and the “number of flies with abnormal wing posture” value [2] was “significant decrease in the number of flies with abnormal wing posture”.

From patent US20170368134A1, “PROTEASOME INHIBITORS FOR TREATING A DISORDER RELATED TO AN ACCUMULATION OF NON-DEGRADED ABNORMAL PROTEIN OR A CANCER” (UNIVERSITÉ D'AIX-MARSEILLE, priority 2015, published 2017)
